According to patent US9381182B2, “Anthranilic acid derivatives: novel inhibitors of advanced glycation end-products (AGEs) formation” (priority 2013, dated 2016):
Where two headings read alike, the source gives them in different places.

Tests used:
[1] = MTT-based cytotoxicity assay; conditions: mouse, 3T3 mouse fibroblast cells, 3T3 cell-line, read-out: Cytotoxicity % Inhibition
Text: Many studies have highlighted the contribution of AGEs in disease states and primarily investigated their deleterious effects and their possible mechanism of actions. Therefore, there is a need of synthesis and investigation of novel antiglycation agents, which are devoid of any adverse effects, may present a therapeutic approach for the delaying and treatment of premature aging and vascular abnormalities in diabetic patients. In the current study, we explored the novel antiglycation agents (1-18), which are potent inhibitors against the glycation process, and belong to anthranilic acid derivatives. The inhibitors were identified by using high throughput screening method, fluorescence-based antiglycation assay (see Table-1). The cytotoxicity studies were performed against mouse fibroblast cell-line (3T3 Cell-line) by employing MTT-based cytotoxicity assay. The mechanistic studies were also conducted to evaluate the effect of novel antiglycation inhibitors on AGEs-induced intracellular reactive oxygen species generation (ROS) and associated impaired proliferation in rat hepatocytes via dichlorofluorescin diacetate (DCFH-DA) and MTT-based cytotoxicity assay, respectively. Previously, these novel antiglycation inhibitors were known for anticancer and anti-inflammatory activities (Congiu C, et al., 2005).

[2] = molecular target: T1, Human serum albumin (HSA) glycation by fructose (AGE-HSA) (Homo sapiens, UniProt P02768); assay: In-vitro antiglycation activity against HSA glycation (fluorescence-based antiglycation assay); format: biochemical; conditions: for inhibition at 1000 µM: read-out: Antiglycation Activity % Inhibition
T1 construct: purchased Sigma Aldrich, St. Louis, Mo., USA
T1 sequence (P02768 25-609): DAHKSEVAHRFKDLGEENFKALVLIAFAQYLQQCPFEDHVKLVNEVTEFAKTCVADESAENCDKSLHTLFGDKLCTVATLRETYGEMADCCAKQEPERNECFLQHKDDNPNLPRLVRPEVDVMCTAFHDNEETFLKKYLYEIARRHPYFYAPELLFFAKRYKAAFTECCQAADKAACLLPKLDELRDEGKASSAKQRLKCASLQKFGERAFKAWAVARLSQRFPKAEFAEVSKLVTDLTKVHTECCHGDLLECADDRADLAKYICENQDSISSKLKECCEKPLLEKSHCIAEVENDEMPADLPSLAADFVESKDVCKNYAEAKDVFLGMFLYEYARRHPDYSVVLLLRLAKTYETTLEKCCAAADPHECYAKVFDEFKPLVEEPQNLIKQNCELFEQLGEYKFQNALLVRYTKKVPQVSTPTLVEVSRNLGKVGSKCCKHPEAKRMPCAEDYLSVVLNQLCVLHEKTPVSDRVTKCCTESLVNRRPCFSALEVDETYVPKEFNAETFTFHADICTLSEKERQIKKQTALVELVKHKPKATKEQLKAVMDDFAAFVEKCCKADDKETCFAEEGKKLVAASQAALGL
Protocol: Methodology: Human serum albumin (HSA) free from essential fatty acids and rutin were obtained from Sigma Aldrich, St. Louis, Mo., USA. D-fructose, sodium azide (NaN3) and dimethyl sulfoxide (DMSO) were acquired from Merck, Darmstadt, Germany. All solutions were prepared in sterile environment in deionized water at room temperature.
Assay Method: The assay was performed according the protocol of (Sattarahmady N, et al., 2007) with a little modification. […] Each sample solution (200 μL, final reaction volume) in triplicate loaded a 96-wll black fluorescence plate and was incubated for a week at 37° C. in an incubator.

[3] = system: rat hepatocytes (CC1-Cell line); assay: AGE-mediated reduced growth of rat hepatocytes, MTT assay; format: cell-based; conditions: for Absorbance (Average): 540 nm
Text: Methodology: Normal, rat hepatocytes (CC1-Cell line) was purchased from ATCC, Manassas, Va., USA. MEM (Minimum Essential Medium) with L-glutamine, trypsin-EDTA, sodium bicarbonate and penicillin-streptomycin were obtained from Sigma, St. Louis, Mo., USA. 96-well tissue culture treated, sterile, round bottom plates were acquired from Thermo Fisher Scientific, Waltham, Mass., USA.
All the treatment with the AGEs and the test compound were done in SFM (serum free medium), and Triton X-100 treated hepatocytes were used as a blank, while untreated normal cells were used as a control.
Determination of Cellular Proliferation: At the end of the incubation, the sample solution was removed and MTT-dye ((2 mg/mL, 50 μL) was added to each well. The final reaction volume (200 μL) was reconstituted by MEM (serum free-Minimum essential media). The plate was incubated for 4 hours at 37° C. in 5% CO2 containing incubator. Following incubation, the serum free medium was removed and the crystals were dissolved by adding DMSO (100 μL) in each well.
Absorbance Detection: The absorbance of the colored solution was measured at 540 nm by Spectra Max Spectrophotometer, Applied Biosystems, CA, USA.
Where, • Test Compound=Novel anthranilic acid derivative • Blank=Hepatocytes treated with Triton X-100 • Control=Untreated normal rat hepatocytes

[4] = system: rat hepatocytes (CC1-Cell line); assay: Fructose-derived AGE-mediated intracellular ROS generation, DCFH-DA technique; format: cell-based; conditions: for Fluorescence (Average), ROS production: no test compound
Protocol: Methodology: DCFH-DA (Dichlorofluorescin diacetate), H2O2 (Hydrogen peroxide), DMSO (Dimethyl sulfoxide) and PBS (Phosphate buffer saline) were obtained from Sigma, St. Louis, Mo., USA. 96-well black fluorescence plates (Tissue culture treated) were purchased from Thermo Fisher Scientific, Waltham, Mass., USA.
Assay Method: Briefly, rat hepatocytes (CC1-Cell line, 6×10^4 cells/mL) were loaded on a black fluorescence 96-well tissue culture treated plate for 24 hours at 37° C. in an incubator, containing 5% CO2. The cells were serum starved for another 24 hours by adding serum free medium-MEM (minimum essential medium) prior to treatment with fructose-derived AGE and the test compounds, anthranilic acid derivatives. Initially the cells were treated with non fluorescent probe, DCFH-DA (10 μM) in the dark for 45 mins. Following incubation the cells were washed twice with 1×PBS and were treated with different concentrations of the AGEs, such as 0, 50, 100, and 200 μg/mL, to evaluate the AGEs influence on the generation of intracellular ROS in a concentration dependent manner. The cells were then treated with the test compounds (novel anthranilic acid derivatives) at various concentrations 24, 33, and 49 μM, co-incubated with the AGE (200 μg/mL) for 24 hours at 37° C. At the end of the incubation, just before 1 hour, the cells were incubated with H2O2 (0.5%) as a control.
Fluorescence Detection: The intensity of green fluorescence, which is emitted upon the oxidation of the probe in the presence of intracellular ROS, is measured at the excitation and emission wavelength of 490 nm and 520 nm, respectively, by Spectra Max Spectrophotometer, Applied Biosystems, CA, USA.
Where, • Test compound=anthranilic acid derivative • Blank=Untreated normal rat hepatocytes • Control=Hepatocytes treated with 0.5% H2O2

[5] = read-out: Antiglycation Activity IC50 ± SEM
[6] = compound 24 μM, co-incubated with AGEs 200 μg/mL, 24 hours
[7] = compound 33 μM, co-incubated with AGEs 200 μg/mL, 24 hours
[8] = compound 49 μM, co-incubated with AGEs 200 μg/mL, 24 hours

Compound | cytotoxicity [1] [%] | IC50 [2] [µM] | inhibition at 1000 µM [2] [%] | other results
O=C(O)c1ccccc1Nc1cc(Cl)ccc1[N+](=O)[O-] [Compound 17, 2-(5-Chloro-2-nitroanilino)benzoic acid] | 1.5 | 150 ± 0.001 | 78 | 
O=C(O)c1ccccc1Nc1ccc(Cl)cc1 [Compound 5, 2-(4-Chloroanilino)benzoic acid] | 41.3 | 298 ± 0.015 | 62 | 
O=C(O)c1ccccc1Nc1ccc(Cl)c([N+](=O)[O-])c1 [Compound 4, 2-(4-Chloro-3-nitroanilino)benzoic acid] | 19.7 | 266 ± 0.01 | 68.9 | 
COc1cccc(Nc2ccccc2C(=O)O)c1 [Compound 18, 2-(3-Methoxyanilino)benzoic acid] | 7.1 | 398 ± 0.007 | 71 | 
Cc1cc(C)cc(Nc2ccccc2C(=O)O)c1 [Compound 13, 2-(3,5-Dimethylanilino)benzoic acid] | 4.8 | 457 ± 0.019 | 65 | 
O=C(O)c1ccccc1Nc1cccc([N+](=O)[O-])c1 [Compound 16, 2-(3-Nitroanilino)benzoic acid] | 4.1 |  | 80 | IC50 [2, 5]: 264 ± 0.013 µM
O=C(O)c1ccccc1Nc1ccc(F)cc1F [Compound 10, 2-(2,4-Difluoroanilino)benzoic acid] | 1.1 | 558 ± 0.066 | 63 | 
O=C(O)c1ccccc1Nc1ccc(Cl)cc1[N+](=O)[O-] [Compound 2, 2-(4-Chloro-2-nitroanilino)benzoic acid] | 5.6 | 137 ± 0.002 | 82 | 
COc1cc(OC)c(Nc2ccccc2C(=O)O)cc1Cl [Compound 3, 2-(5-Chloro-2,4-dimethoxyanilino)benzoic acid] | 22.4 | 266 ± 0.016 | 75.1 | 
C[C@@H]1O[C@@H](OC[C@H]2O[C@@H](Oc3c(-c4ccc(O)c(O)c4)oc4cc(O)cc(O)c4c3=O)[C@H](O)[C@@H](O)[C@@H]2O)[C@H](O)[C@H](O)[C@H]1O [rutin, reference compound] |  |  |  | IC50 [2, 5]: 70 ± 0.5 µM
O=C(O)c1ccccc1Nc1ccc([N+](=O)[O-])cc1[N+](=O)[O-] [Compound 1, 2-(2,4-Dinitroanilino)benzoic acid] | 1.5 |  | 90 | inhibition at 24 µM ([3]; Rattus norvegicus, Hepatocyte, 24 h, compound 24 μM, co-incubated with AGEs 200 μg/mL, 24 hours, read-out: Percentage Inhibition (growth inhibition of hepatocytes)): 12%; inhibition at 33 µM ([3]; Rattus norvegicus, Hepatocyte, 24 h, compound 33 μM, co-incubated with AGEs 200 μg/mL, 24 hours, read-out: Percentage Inhibition (growth inhibition of hepatocytes)): 18.5%; inhibition at 49 µM ([3]; Rattus norvegicus, Hepatocyte, 24 h, compound 49 μM, co-incubated with AGEs 200 μg/mL, 24 hours, read-out: Percentage Inhibition (growth inhibition of hepatocytes)): 18.8%; Percentage Inhibition (growth inhibition of hepatocytes) ([3]; compound 24 μM, co-incubated with AGEs 200 μg/mL, 24 hours, 24 µM): 12.3%; Absorbance (Average) [3, 6]: 1.15; cytotoxic effect of the AGEs on the hepatocytes in presence of compound (in words) ([3]; compound 33 μM, AGEs 200 μg/mL): no cytotoxic effect; Absorbance (Average) [3, 7]: 1.09; reducing the toxic effects of the AGEs on the hepatocytes proliferation (in words) ([3]; compound 49 μM, AGEs 200 μg/mL): safe and effective; Absorbance (Average) [3, 8]: 1.08; IC50 [2, 5]: 67.2 ± 0.004 µM; inhibition at 24 µM ([4]; Rattus norvegicus, Hepatocyte, compound 24 μM, co-incubated with AGEs 200 μg/mL, 24 hours, read-out: Percentage Inhibition of AGE-induced intracellular ROS generation): 93.4%; inhibition at 33 µM ([4]; Rattus norvegicus, Hepatocyte, compound 33 μM, co-incubated with AGEs 200 μg/mL, 24 hours, read-out: Percentage Inhibition of AGE-induced intracellular ROS generation): 86.9%; inhibition at 49 µM ([4]; Rattus norvegicus, Hepatocyte, compound 49 μM, co-incubated with AGEs 200 μg/mL, 24 hours, read-out: Percentage Inhibition of AGE-induced intracellular ROS generation): 63.2%; Fluorescence (Average) [4, 6]: 90.6; Fluorescence (Average) [4, 7]: 101.2; inhibitory influence on the intracellular generation of ROS (in words) ([4]; compound 49 μM, AGE 200 μg/mL): moderate inhibitory influence; Fluorescence (Average) [4, 8]: 139.5
O=C(O)c1ccccc1Nc1cc(Cl)cc([N+](=O)[O-])c1 [Compound 7, 2-(3-Chloro-5-nitroanilino)benzoic acid] | 13 | 166 ± 0.017 | 84.4 | 
O=C(O)c1ccccc1Nc1cc(Cl)ccc1Cl [Compound 15, 2-(2,5-Dichloroanilino)benzoic acid] | 1.6 | 678 ± 0.047 | 62 | 
O=C(O)c1ccccc1Nc1cc([N+](=O)[O-])ccc1Cl [Compound 9, 2-(2-Chloro-5-nitroanilino)benzoic acid] | 3 | 314 ± 0.01 | 79.4 | 
CCCCc1ccc(Nc2ccccc2C(=O)O)cc1 [Compound 12, 2-(4-Butylanilino)benzoic acid] | 17.3 | 407 ± 0.01 | 70 | 
AGEs |  |  |  | Fluorescence (Average), ROS production ([4]; 50 μg/mL, 24 hours): 114.4; Fluorescence (Average), ROS production ([4]; 100 μg/mL, 24 hours): 135.3; Fluorescence (Average), ROS production ([4]; 200 μg/mL, 24 hours): 201.9
O=C(O)c1ccccc1Nc1ccc(Cl)c(Cl)c1 [Compound 11, 2-(3,4-Dichloroanilino)benzoic acid] | 40.1 | 597 ± 0.021 | 62 | 
O=C(O)c1ccccc1Nc1ccccc1Cl [Compound 6, 2-(2-Chloroanilino)benzoic acid] | 0.9 | 426 ± 0.017 | 68 | 
Cc1ccc(Cl)cc1Nc1ccccc1C(=O)O [Compound 8, 2-(5-Chloro-2-methylanilino)benzoic acid] | 3.2 | 408 ± 0.03 | 69 | 
O=C(O)c1ccccc1Nc1cc(Cl)c([N+](=O)[O-])cc1Cl [Compound 14, 2-(2,5-Dichloro-4-nitroanilino)benzoic acid] | 29.6 | 84.8 ± 0.003 | 88.8 | 
